Publication PMC10226132, “First-in-Class Selective Inhibitors of the Lysine Acetyltransferase KAT8” (Journal of Medicinal Chemistry, 2023)

Experiments:
HCT116 cells = assay: MTT cell proliferation assay, HCT116; format: cell-based, human; conditions: for antiproliferative activity in HCT116: 10, 25, 50, 100 μM, 72 h; for IC50: Homo sapiens, HCT-116, 72 h treatment, MTT
Excerpt: Human commercially available AML U937, breast cancer MCF7, lung adenocarcinoma NCI-H460, H1299 and A-549, glioblastoma U251, B lymphocyte AHH1 cell lines were maintained in compete 10% foetal bovine serum (FBS,) RPMI 1640 (Euroclone, Milan, IT) medium. Human commercially available colon cancer HCT116 and HT29 lines and cervix adenocarcinoma HeLa cells were maintained in compete 10% FBS Dulbecco’s Modified Eagle Medium (DMEM) high glucose medium (Euroclone). L-Glutamine, FBS, and penicillin streptomycin mixture added to medium were obtained from Euroclone. All cell lines were cultured at 37 °C in a humidified atmosphere of 5% CO2:95% air and were tested for mycoplasma contamination routinely by RT-PCR.
For analysis of cell proliferation, cells were plated in sextuplicate on 96-well plates in complete media. After 24 h, cells were exposed to different drugs for 72 h. The inhibitory effect of different drugs was assessed by MTT (Sigma, St. Louis, MO, USA) colorimetric assays as previously reported.[67] Aqueous DMSO (0.5% v/v) was used as a control (untreated). The results are reported as “viability of drug-treated cells/viability of untreated cells” × 100 and represent the average ±SD of three independent experiments. IC50 values were using fitted by nonlinear regression using GraphPad Prism 8.0.

KDAC2, 3, 6, and 8 = system: KDAC2, 3, 6, and 8; design: method as in PMID 26718586; conditions: cited from earlier work
[1] = system: HOXA9 mRNA in HCT116 cells; assay: qRT-PCR of HOXA9 mRNA in HCT116 cells; format: cell-based, human; conditions: HCT116, 100 μM, 48 h
Description: Total RNA was isolated from cells after 48 h of treatment with compounds 19 and 34 (100 μM) using TRIzol reagent (Life Technologies) following the manufacturer’s instructions. cDNA was obtained by reverse transcription using a SensiFast cDNA Synthesis kit (Meridian Bioscience). qRT-PCR was performed using a Luna Universal qPCR Master Mix (BioLabs) and detected by Quant Studio3. The fold change of gene expression data was calculated by using the ddCT method. All samples were run in sextupled, and the results were presented as mean ± SEM. Detailed sequence of the primers used in the experiments can be found in the list below. • UCP2—Forward: 5′-[…]-3′ • Reverse 5′-[…]-3′ • HOXA9 — Forward: 5′-[…]-3′ • Reverse: 5′-[…]-3′

[2] = system: LC3 and p62 in HeLa cells; assay: Western blot of autophagic markers in HeLa cells; format: cell-based, human; conditions: increasing doses, 48 h
Description: For WB experiments, the cells were lysed in RIPA buffer supplemented with 1× […] protease inhibitor cocktail (Sigma-Aldrich, S8830); 20 μg of total protein was resolved in 13.5% gels by SDS-PAGE. Then, the proteins were transferred to nitrocellulose membranes (Biorad Laboratories). Membranes were blocked for 1 h and incubated overnight with the appropriate primary antibody at 4 °C. After incubation, membranes were washed and incubated with the appropriate secondary antibody (Biorad Laboratories) for 1 h at room temperature. Following primary rabbit monoclonal antibodies H4K16Ac (1:1000, E2B8W, Rabbit mAb#13534, Cell Signalling Technology), KAT8 (1:1000, D5T3R Rabbit mAb #46862 Cell Signalling Technology), GAPDH (1:1000, sc-32233, Santa Cruz Biotechnologies), anti-LC3B (Sigma-Aldrich, L7543), anti-SQSTM1/p62 (Santa Cruz Biotechnology, sc-28,359), and anti-GAPDH (Santa Cruz Biotechnology, sc-32,233). Secondary antibodies: anti-mouse (Bio-Rad Laboratories, 1,706,515) or anti-rabbit (Bio-Rad Laboratories, 1,706,516) IgG-horseradish peroxidase-conjugated antibodies. Detection was performed by ECL Western Blotting Substrate (Biorad Laboratories). Images of blots were acquired through the ChemiDoc Imaging Systems (Biorad Laboratories). The band signals were quantified using ImageJ, and values were normalized to relative controls, depending on the analysis.

Row | IC50 (HCT116 cells) [µM] | Compound | antiproliferative activity in HCT116 (HCT116 cells) | IC50 (KDAC2, 3, 6, and 8) [µM] | HOXA9 mRNA levels [1] | LC3-II/-I ratio and p62 autophagic markers (WB), HeLa [2]
1 | 39.4 ± 8.2 | CC1=NN(c2ccc(C(=O)O)cc2)C(=O)/C1=C\c1ccc[nH]1 [Compound 19, (Z)-4-(4-((1H-Pyrrol-2-yl)methylene)-3-methyl-5-oxo-4,5-dihydro-1H-pyrazol-1-yl)benzoic Acid] | dose-dependent antiproliferative effects | – | – | –
2 | – | CC1=NN(c2ccc(C(=O)O)cc2)C(=O)/C1=C\c1ccc(-c2cc(C)c(C)cc2[N+](=O)[O-])o1 [VII (C646), reference compound] | – | 7 to 25 | – | –
3 | 46.6 ± 11.5 | O=C(O)c1ccc(N2N=C(c3ccccc3)/C(=C/c3ccc[nH]3)C2=O)cc1 [Compound 34, (Z)-4-(4-((1H-Pyrrol-2-yl)methylene)-5-oxo-3-phenyl-4,5-dihydro-1H-pyrazol-1-yl)benzoic Acid] | dose-dependent antiproliferative effects | – | downregulating also HOXA9 | A similar response
